The source of these data is ChEMBL document CHEMBL1127880, “1H-1,2,4-triazole angiotensin II receptor antagonists: N-phenylpyridinylmethyl and N-pyridinylphenylmethyl analogs of SC-50560” (Bioorg Med Chem Lett, 1994).

For test [1], the species on record is Oryctolagus cuniculus. Put plainly: Evaluated for antagonism of AII contracted rabbit aortic rings. The test is classed as functional. The conditions noted are these: Aorta, read-out: pA2 (converted).
The target in test [2] is T1, Angiotensin II receptor (Rattus norvegicus, UniProt P29089+P25095+P35351).
T1 sequence (P29089 whole entry): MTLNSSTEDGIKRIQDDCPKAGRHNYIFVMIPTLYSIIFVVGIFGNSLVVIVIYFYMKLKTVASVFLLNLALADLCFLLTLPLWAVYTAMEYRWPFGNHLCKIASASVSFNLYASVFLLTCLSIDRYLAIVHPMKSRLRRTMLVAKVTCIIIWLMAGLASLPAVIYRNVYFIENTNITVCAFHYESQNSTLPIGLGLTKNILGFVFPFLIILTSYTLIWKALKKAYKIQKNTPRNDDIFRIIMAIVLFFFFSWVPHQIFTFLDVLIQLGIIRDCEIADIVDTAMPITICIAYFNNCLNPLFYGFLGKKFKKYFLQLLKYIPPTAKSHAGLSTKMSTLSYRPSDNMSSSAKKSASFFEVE
T1 sequence (P25095 whole entry): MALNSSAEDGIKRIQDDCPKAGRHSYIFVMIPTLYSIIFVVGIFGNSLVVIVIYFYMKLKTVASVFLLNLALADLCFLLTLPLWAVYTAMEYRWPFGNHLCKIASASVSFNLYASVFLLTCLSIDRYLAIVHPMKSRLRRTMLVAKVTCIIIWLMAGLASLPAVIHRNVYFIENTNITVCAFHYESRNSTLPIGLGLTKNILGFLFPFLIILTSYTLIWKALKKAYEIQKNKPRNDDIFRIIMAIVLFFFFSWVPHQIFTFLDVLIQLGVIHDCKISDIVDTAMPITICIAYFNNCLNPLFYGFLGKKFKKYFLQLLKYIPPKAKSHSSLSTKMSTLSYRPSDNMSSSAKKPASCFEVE
T1 sequence (P35351 whole entry): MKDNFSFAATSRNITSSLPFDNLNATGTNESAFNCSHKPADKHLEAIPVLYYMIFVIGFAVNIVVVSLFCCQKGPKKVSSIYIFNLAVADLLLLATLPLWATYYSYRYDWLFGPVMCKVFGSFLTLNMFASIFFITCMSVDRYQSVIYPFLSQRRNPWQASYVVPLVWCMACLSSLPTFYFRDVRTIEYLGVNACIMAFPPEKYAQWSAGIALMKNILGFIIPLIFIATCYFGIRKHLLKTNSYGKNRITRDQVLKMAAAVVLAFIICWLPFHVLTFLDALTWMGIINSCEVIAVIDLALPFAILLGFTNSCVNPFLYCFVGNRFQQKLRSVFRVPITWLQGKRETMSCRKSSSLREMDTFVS
Put plainly: Tested in vitro for inhibition of [125I]AII to rat uterine membranes. The format is cell membranes, Membrane.

For the compound `CCCCc1nc(CCCC)n(Cc2ccc(-c3ccccc3-c3nn[nH]n3)cn2)n1`, the Kb in test [1] is 10 nM.
As usually defined, the IC50 is the midpoint of a concentration-inhibition curve. With `CCCCc1nc(CCCC)n(Cc2ccc(-c3ncccc3-c3nn[nH]n3)cc2)n1`, the Kb in test [1] was 158 nM. This compound gave a 50% inhibitory concentration (IC50) in test [2] of 98 nM.
`CCCCc1nc(CCCC)n(Cc2ccc(-c3cnccc3-c3nn[nH]n3)cc2)n1`: the Kb in test [1] is 63.1 nM. In addition, the concentration for half-maximal inhibition (IC50) in test [2] is 150 nM.
`CCCCc1nc(CCCC)n(Cc2ccc(-c3ccncc3-c3nn[nH]n3)cc2)n1`: in test [2], the IC50 is listed as 250 nM.
Consider `CCCCc1nc(CCCC)n(Cc2ccc(-c3cccnc3-c3nn[nH]n3)cc2)n1`, for which the Kb in test [1] was 126 nM. Moreover, in test [2], the IC50 was determined as 110 nM.
